From patent US20260216347A1, “Substituted Imidazo-Based Compounds as Ligand Directed Degraders of IRAK3” (Celgene Corporation, priority 2022, published 2026)

Tests used:
IRAK3 [1] = target: T1, IRAK3 (Homo sapiens, UniProt Q9Y616); experiment: IRAK endogenous HTRF degradation assay (Total-IRAK3 HTRF kit); assay type: cell-based; details: overnight incubation, lowest percentage of protein remaining
T1 construct: IRAK Endogenous HTRF Degradation Assay; endogenous in cells
T1 sequence (Q9Y616 1-596): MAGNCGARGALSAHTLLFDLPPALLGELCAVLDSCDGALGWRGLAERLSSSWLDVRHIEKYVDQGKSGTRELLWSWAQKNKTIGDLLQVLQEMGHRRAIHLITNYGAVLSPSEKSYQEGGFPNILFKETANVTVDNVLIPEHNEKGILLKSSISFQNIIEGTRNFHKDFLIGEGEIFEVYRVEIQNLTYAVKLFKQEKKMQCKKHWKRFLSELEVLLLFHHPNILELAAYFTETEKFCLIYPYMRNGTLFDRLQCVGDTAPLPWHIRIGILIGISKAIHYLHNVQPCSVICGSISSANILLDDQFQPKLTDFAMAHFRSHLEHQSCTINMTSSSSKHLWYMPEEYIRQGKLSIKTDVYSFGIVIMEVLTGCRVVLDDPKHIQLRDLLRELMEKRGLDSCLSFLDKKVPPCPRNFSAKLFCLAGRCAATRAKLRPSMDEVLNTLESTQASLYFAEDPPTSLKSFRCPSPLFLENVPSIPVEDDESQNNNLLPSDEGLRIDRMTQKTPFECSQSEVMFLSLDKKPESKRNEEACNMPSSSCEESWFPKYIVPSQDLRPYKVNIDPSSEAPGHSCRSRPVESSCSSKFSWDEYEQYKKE
Experimental: Example B2. IRAK Endogenous HTRF Degradation Assay
Cells (~50 k) were plated in Cisbio 96-well low volume white plates (Cisbio: cat #66PL96005). Compounds were dissolved in DMSO and a 3-fold serial dilution was performed using a TECAN D300E. Cells were incubated with the compound overnight. Total-IRAK3 HTRF kit from Cisbio was used for degradation analysis (Cisbio: 63ADK101PEH). Cryptate and D2 antibodies were diluted in Detection buffer as per manufacturers recommendation. Then 2 μL of each solution was added to 16 μL lysate. Buffer control (lysis buffer detection buffer), Cryptate control (lysis buffer+cryptate antibody+detection buffer), and Negative control (lysis buffer+cryptate antibody+D2 antibody) were made as per manufacturers recommendation. Post incubation with antibodies the HTRF signal was measured using a Perkin Elmer Envision reader and the HTRF signal was calculated using formula: (Emission at 665 nm/Emission at 615 nm)*10,000. All HTRF values were normalized to the average value of DMSO. The average value of the DMSO control wells were set to equal 100% of the relative IRAK3 protein levels. Normalized luminescence values were plotted on a graph as a function of compound concentration. Compound concentration was plotted on the x-axis and the corresponding normalized IRAK3 protein levels on the y-axis. The EC50 value (the half-maximum effective concentration) of a compound for the degradation of the IRAK3 was calculated using a four-parameter logistic model (sigmoidal dose-response model) (FIT=(A+{(B−A)/1+[(C/x)D]})) where C is the inflection point (EC50), D is the […], and A and B are the low and high limits of the fit, respectively). The Ymin was calculated by determining the lowest percentage of target protein remaining following compound treatment. Dmax was calculated from Ymin (% Dmax=100−Ymin).
Using these assays, IC50, Dmax, EC50, and DC50 values of the following compounds were determined. Dmax is defined as the maximum percent degradation achieved and DC50 is the concentration at which 50% degradation is achieved.

IRAK3-ePL = target: T2, IRAK3-ePL (Homo sapiens, UniProt Q9Y616); experiment: IRAK3-ePL overexpressing degradation assay (InCELL Hunter luminescence, dose response); assay type: cell-based; details: for IRAK3 ePL degradation Ymin: lowest percentage of target protein remaining following compound treatment; for DC50: read-out: IRAK3 ePL degradation EC50
T2 construct: expressed in transfected cells; host or cells: 293T CRBN OE/GSPT1 G575N KI cells, lentiviral transduction, puromycin selected
Experimental: Example B1. IRAK3-ePL Overexpressing Degradation Assay
Stable cell lines were generated by the following protocol. 3×10^5 Lenti-X 293T cells (Clonetech) were plated in 0.8 mL of media in a 12-well plate and incubated overnight at 37° C./5% CO2. Packaging plasmid (0.4 μg, pMD), envelope plasmid (0.4 μg, pSP), and lentiviral transfer IRAK3-ePL plasmid (0.8 μg, TRAK3 sequence NM_007199.3) were mixed in 0.1 mL of Opti-MEM and incubated for 5 min. Simultaneously, 2.4 μL of Lipofectamine 2000 (Invitrogen) was added to 0.1 mL of Opti-MEM (Gibco) and incubated for 5 min. The plasmid DNA and lipofectamine were combined and the mixture was allowed to incubate for 20 min.DNA:Lipofectamine Opti-MEM mixtures were then added to previously plated cells dropwise and the cells were incubated for ~16 h at 37° C./5% CO2. Following incubation, the media was removed and 1.2 mL of fresh media was added per well. Lenti-X 293T cells were incubated for ~30 h at 37° C./5% CO2. […] Following incubation, media was removed from the Lenti-X 293T wells and passed through a […] filter. Part of the viral supernatant was used to transduce cells and the rest was stored at −80° C. Viruses were then added individually (0.5 mL virus) to each well of the 293T^CRBN OE/GSPT1 G575N KI cells, followed by addition of polybrene (10 mg/mL Millipore) to each well at a final concentration of 5.0 μg/mL. Cells were incubated for ~24 h at 37° C./5% CO2. After aspirating media off plates, cells were washed with DPBS, trypsinized and plated in a 10 cm dish in 15 mL of media and […] puromycin. Following incubation of cells for ~72 h at 37° C./5% CO2, media was aspirated off plates, and cells were washed with DPBS and trypsinized. The cells were plated in a 15 cm dish in 40 mL of media with 1.0 μg/mL Puromycin (Gibco) and incubated for ~72 h at 37° C./5% CO2. Following incubation, media was removed and cells were washed with DPBS and trypsinized. The majority of cells were resuspended in Invitrogen freezing media and stored away (~6-8×10^6 cells/vial).
IRAK3-ePL cellular dose response curve degradation assays were performed by the following protocol. Compounds to be tested were dispensed into a white 384-well tissue-culture treated plate using an acoustic liquid handler. Dilutions were prepared based on a 25 μL assay volume in duplicate 10 point 3-fold serial dilutions starting with a 10 μM dose. Negative control wells were included, which only contain 0.2% DMSO to calculate 100% signal. Positive control wells containing 30 μM Ataluren (luciferase inhibitor) were included to calculate the background signal level. All wells were backfilled to a final DMSO concentration of 0.2% to ensure DMSO uniformity across wells. IRAK3-ePL expressing cells (IRAK3-ePL Lenti-X 293T^CRBN/GSPT1 G575N) were washed, trypsinized, counted, and resuspended in fresh DMEM (Gibco) to give a cell concentration of 200,000 cells/mL. 25 μL of cells (5,000 cells/well) were dispensed into the wells of the 384-well plate prespotted with compounds in the previous step and incubated overnight at 37° C./5% CO2. Following incubation, the 384-well plate was taken out of the incubator and left at room temperature for 30 min. InCELL hunter reagent was prepared according to manufacturer's instructions (EA reagent, lysis buffer, and substrate reagent in a 1:1:4 ratio, Cat #96-0002, DiscoverX), which was added to the 384-well plate 25 μL per well. Following the incubation of the plate for 1 h at room temperature, the luminescence signal was read using a ViewLux plate reader. Data was processed and analyzed in ActivityBase software. In short, the average luminescence values of the positive control wells were subtracted from the rest of the wells for background correction, and all luminescence values were normalized to the DMSO control wells. The average value of the DMSO control wells was set to equal 100% of the relative IRAK3-ePL protein levels. […]

IRAK3 [2] = target: T1, IRAK3; experiment: IRAK3 biochemical binding assay (LanthaScreen Eu Kinase Binding, TR-FRET)
Method in brief: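 TR-FRET tracer-displacement binding with 10 nM IRAK3, 2 nM Eu-anti-GST antibody and 10 nM tracer in 50 mM HEPES pH 7.4, MgCl2, 1 mM EGTA, 0.01% Brij-35. Compounds in 3-fold dilutions, 1 h at room temperature. 665/615 nm ratio gave % inhibition; IC50 and Hill slope from dose-response fit.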

SMILES	IRAK3 HTRF degradation Ymin (IRAK3 [1])	IRAK3 ePL degradation Ymin (IRAK3-ePL)	DC50 (IRAK3-ePL)	IC50 (IRAK3 [2])
Cc1cc(-c2cnc(Nc3cnn([C@@H]4CCN(CCN5CCN(c6ccc(C7CCC(=O)NC7=O)cc6)C[C@H]5C)[C@H](C)C4)c3)c3nccn23)c(F)cc1F (stereo partly drawn) [Compound 29, 3-(4-((R)-4-(2-((2R,4R)-4-(4-((5-(2,4-difluoro-5-methylphenyl)imdazo [1,2-a]pyrazin-8-yl)amino)-1H-pyrazol-1-yl)-2-methylpiperidin-1-yl)ethyl)-3-methylpiperazin-1-yl)phenyl) piperidine-2,6-dione]	14%	24%	0.51 nM	–
Cc1cc(-c2cnc(Nc3cnn([C@@H]4CCN(CCN5CCN(c6ccc(C7CCC(=O)NC7=O)cc6)CC5)[C@H](C)C4)c3)c3nccn23)c(F)cc1F (stereo partly drawn) [Compound 30, 3-(4-(4-(2-((2R,4R)-4-(4-((5-(2,4-difluoro-5-methylphenyl)imdazo [1,2-a]pyrazin-8-yl)amino)-1H-pyrazol-1-yl)-2-methylpiperidin-1-yl)ethyl)piperazin-1-yl)phenyl) piperidine-2,6-dione]	14%	24%	0.51 nM	–
Cc1ccc(F)c(-c2cnc(Nc3cnn(C4CCN(CCN5CCN(c6ccc(C7CCC(=O)NC7=O)cc6)CC5)CC4)c3)c3nccn23)c1 (stereo not shown) [Compound 36, 3-(4-(4-(2-(4-(4-((5-(2-fluoro-5-methylphenyl)imdazo [1,2-a]pyrazin-8-yl)amino)-1H-pyrazol-1-yl)piperidin-1-yl)ethyl)piperazin-1-yl)phenyl) piperidine-2,6-dione]	9.8%	24%	1.1 nM	–
C[C@H]1CN(c2ccc(C3CCC(=O)NC3=O)cc2)CCN1CCN1CCC(n2cc(Nc3ncc(C4CC4)n4ccnc34)cn2)CC1 (stereo partly drawn) [Compound 38, 3-(4-((S)-4-(2-(4-(4-((5-cyclopropylimidazo[1,2-a]pyrazin-8-yl)amino)-1H-pyrazol-1-yl)piperidin-1-yl)ethyl)-3-methylpiperazin-1-yl)phenyl) piperidine-2,6-dione]	9.1%	25%	0.51 nM	–
CS(=O)(=O)c1ccccc1-c1cnc(Nc2cnn(C3CCN(CCN4CCN(c5ccc(C6CCC(=O)NC6=O)cc5)CC4)CC3)c2)c2nccn12 (stereo not shown) [Compound 83, 3-(4-(4-(2-(4-(4-((5-(2-(methylsulfonyl)phenyl)imidazo[1,2-a]pyrazin-8-yl)amino)-1H-pyrazol-1-yl)piperidin-1-yl)ethyl)piperazin-1-yl)phenyl) piperidine-2,6-dione]	–	90%	–	1600 nM

Now from value to molecule:

IRAK3 HTRF degradation Ymin (IRAK3 [1])	IRAK3 ePL degradation Ymin (IRAK3-ePL)	DC50 (IRAK3-ePL)	IC50 (IRAK3 [2])	SMILES
25%	–	–	–	O=C1CCC(N2C(=O)c3ccc(N4CCN(C(=O)CN5CCC(n6cc(Nc7ncc(-c8ccc9c(c8)NC(=O)CO9)n8ccnc78)cn6)CC5)CC4)cc3C2=O)C(=O)N1 (stereo not shown) [Compound 21, 2-(2,6-dioxopiperidin-3-yl)-5-(4-(2-(4-(4-((5-(3-ox0-3,4-dihydro-2H-benzo[b][1,4]oxazin-6-yl)imidazo[1,2-a]pyrazin-8-yl)amino)-1H-pyrazol-1-yl)piperidin-1-yl)acetyl)piperazin-1-yl)isoindoline-1,3-dione]
17%	–	–	–	Cc1cc(-c2cnc(Nc3cnn(C4CCN(C(=O)CN5CCN(c6ccc(C7CCC(=O)NC7=O)cc6)CC5)CC4)c3)c3nccn23)c(F)cc1F (stereo not shown) [Compound 23, 3-(4-(4-(2-(4-(4-((5-(2,4-difluoro-5-methylphenyl)imidazo[1,2-a]pyrazin-8-yl)amino)-1H-pyrazol-1-yl)piperidin-1-yl)-2-oxoethyl)piperazin-1-yl)phenyl)piperidine-2,6-dione]
10%	20%	3.8 nM	–	Cc1cc(-c2cnc(Nc3cnn([C@H]4CC[C@H](CCN5CCN(c6ccc(C7CCC(=O)NC7=O)cc6)C[C@H]5C)CC4)c3)c3nccn23)c(F)cc1F (stereo partly drawn) [Compound 37, 3-(4-((R)-4-(2-((trans)-4-(4-((5-(2,4-difluoro-5-methylphenyl)imidazo[1,2-a]pyrazin-8-yl)amino)-1H-pyrazol-1-yl)cyclohexyl)ethyl)-3-methylpiperazin-1-yl)phenyl) piperidine-2,6-dione]
14. %	32%	0.51 nM	–	Cc1cc(-c2cnc(Nc3cnn(C4CCN(CCN5CCN(c6ccc7c(C8CCC(=O)NC8=O)nn(C)c7c6)CC5)CC4)c3)c3nccn23)c(F)cc1F (stereo not shown) [Compound 39, 3-(6-(4-(2-(4-(4-((5-(2,4-difluoro-5-methylphenyl)imdazo [1,2-a]pyrazin-8-yl)amino)-1H-pyrazol-1-yl)piperidin-1-yl)ethyl)piperazin-1-yl)-1-methyl-1H-indazol-3-yl)piperidine-2,6-dione]
